Laboratory results reported in publication PMC3725505 (Scientific Reports, 2013).

Molecular target: Kelch domain of human Keap1 (residues 321–609) (Homo sapiens, UniProt Q14145)
Test: Isothermal titration calorimetry
Assay type: binding
Settings: ITC, pH 7; for TΔS (entropy term upon binding) / ΔG (change in Gibbs free energy upon binding) / ΔH (change in enthalpy upon binding): T = 298.15 K, 50 mM sodium phosphate, 100 mM NaCl, 1 mM DTT, Table 1 set; for Kd: Kd to Kelch, 25°C

Sequence of Kelch domain of human Keap1 (residues 321–609) (Q14145 321-609): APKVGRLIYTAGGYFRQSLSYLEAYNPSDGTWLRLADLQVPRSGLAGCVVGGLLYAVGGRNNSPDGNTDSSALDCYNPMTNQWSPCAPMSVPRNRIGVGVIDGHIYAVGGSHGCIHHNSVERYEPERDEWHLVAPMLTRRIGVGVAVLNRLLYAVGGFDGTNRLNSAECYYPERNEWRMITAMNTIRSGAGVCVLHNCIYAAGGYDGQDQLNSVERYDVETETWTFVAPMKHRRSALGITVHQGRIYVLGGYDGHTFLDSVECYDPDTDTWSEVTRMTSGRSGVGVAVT

Row | Compound | TΔS (entropy term upon binding) | ΔG (change in Gibbs free energy upon binding) | ΔH (change in enthalpy upon binding) | Kd
1 | Ac-FAQLQLDPETGEFLPIQPAQ-NH2 [NRF2 site 1 E78P] | -5.64 kcal/mol | -11.12 ± 0.03 kcal/mol | -16.76 ± 0.05 kcal/mol | –
2 | Ac-SLEEPHSPETGEKVVAGEVN-NH2 [WTX] | -9.03 kcal/mol | -9.01 ± 0.04 kcal/mol | -18.04 ± 0.09 kcal/mol | 100 to 200 nM
3 | CSCC[C@H](NC(=O)[C@H](CCC(N)=O)NC(=O)[C@H](CC(C)C)NC(=O)[C@H](CO)NC(=O)[C@H](CCC(N)=O)NC(=O)[C@H](CC(C)C)NC(=O)[C@H](CCC(=O)O)NC(=O)CNC(=O)[C@@H](NC(=O)[C@H](CO)NC(=O)[C@@H]1CCCN1C(=O)[C@H](CC(=O)O)NC(=O)[C@@H](NC(=O)[C@H](CCC(=O)O)NC(=O)[C@H](CCCCN)NC(=O)[C@H](CO)NC(=O)[C@H](CO)NC(=O)[C@H](CC(C)C)NC(C)=O)C(C)C)[C@@H](C)O)C(=O)N1CCC[C@H]1C(=O)N[C@@H](CCC(=O)O)C(N)=O [p62] | -10.34 kcal/mol | -8.04 ± 0.03 kcal/mol | -18.38 ± 0.07 kcal/mol | > 1000 nM

Continued, in another order:

Row | TΔS (entropy term upon binding) | ΔG (change in Gibbs free energy upon binding) | ΔH (change in enthalpy upon binding) | Compound | Kd
4 | -9.69 kcal/mol | -7.60 ± 0.03 kcal/mol | -17.29 ± 0.06 kcal/mol | Ac-ANGNANEENGEQEADNEVD-NH2 [PTMA iso 2] | –
5 | -6.56 kcal/mol | -10.40 ± 0.03 kcal/mol | -16.96 ± 0.05 kcal/mol | CC[C@H](C)[C@H](NC(=O)[C@@H]1CCCN1C(=O)[C@H](CC(C)C)NC(=O)[C@H](Cc1ccccc1)NC(=O)[C@H](CCC(=O)O)NC(=O)CNC(=O)[C@@H](NC(=O)[C@H](CCC(=O)O)NC(=O)[C@H](CCC(=O)O)NC(=O)[C@H](CC(=O)O)NC(=O)[C@H](CC(C)C)NC(=O)[C@H](CCC(N)=O)NC(=O)[C@H](CC(C)C)NC(=O)[C@H](CCC(N)=O)NC(=O)[C@H](C)NC(=O)[C@H](Cc1ccccc1)NC(C)=O)[C@@H](C)O)C(=O)N[C@@H](CCC(N)=O)C(=O)N1CCC[C@H]1C(=O)N[C@@H](C)C(=O)N[C@@H](CCC(N)=O)C(N)=O [NRF2 site 1] | –
6 | -10.05 kcal/mol | -9.07 ± 0.03 kcal/mol | -19.12 ± 0.06 kcal/mol | Ac-INVRKRNVESGEEELASKLD-NH2 [PGAM5] | –
7 | -8.02 kcal/mol | -6.72 ± 0.05 kcal/mol | -14.74 ± 0.12 kcal/mol | Ac-ANGNAENEENGEQEADNEVD-NH2 [PTMA iso 1] | –
